Measured values from article PMC3409661 (Radiation research, 2012).
Read-outs that look alike come from different tables or passages of the source.

What was measured:
rat = rat model, 0.5× mouse MTD; cited from earlier work
ferret = ferret model, 0.5× mouse MTD; cited from earlier work
humans = settings: cited from earlier work
ICR mice [1] = settings: known radioprotectors, value quoted for comparison, no reference given; cited from earlier work
[2] = test system: S. typhimurium strain TA100; format: cell-based, Salmonella typhimurium
[3] = test system: S. typhimurium strain TA98; format: cell-based, Salmonella typhimurium
CHO K1 cells = settings: reported in one setting; cited from earlier work
[4] = test system: diploid human fibroblasts; assay: Human cell growth inhibition; format: cell-based; settings: PrC-210 in medium for 30 h before cell counting
[5] = Distribution of [14C] PrC-210 topically applied to rat skin; settings: for Recovery (carcass) / Recovery (skin) = skin (dose site) + skin wash / Recovery (total): 48 h
[6] = pH and disulfide formation of aqueous PrC-210 solutions; format: physicochemical; settings: for PrC-210 disulfide in solution: aqueous
[7] = test system: supercoiled pUC19 plasmid DNA; assay: Protection of plasmid DNA against ROS-induced nicking; format: biochemical; settings: PrC-210 0–70 mM added before hydroxyl radical generating system
[8] = cited from earlier work
ICR mice [9] = assay: Mouse radiation survival assay; format: in vivo
p21 = assay: Western blot for p21 expression in nuclear extracts; format: cell-based, human; settings: 4.1 mM PrC-210 for 30 h vs untreated cells
ICR mice [10] = assay: Mouse aminothiol toxicity assay; format: in vivo
[11] = test system: diploid human fibroblasts; assay: Flow cytometry cell-cycle analysis; format: cell-based
[12] = test system: Sprague-Dawley rat dorsal skin; assay: Rat dorsal skin radiodermatitis assay; format: in vivo
[13] = 87 μM (so in the source), positive control
[14] = Group 2: 1850 mM dermal, without norepinephrine
[15] = Group 3: 1850 mM dermal, with 300 mM norepinephrine

## NCCCNCCSP(=O)(O)O [amifostine]
rat
  hypotension response: elicits both responses
ferret
  retch/vomit response: elicits both responses
humans; human amifostine use
  systemic toxicities: significant systemic toxicities (nausea/emesis, hypotension/fainting)
humans; humans
  efficacy when applied topically to skin or mucosa: has not been effective
ICR mice [1]
  dose reduction factor (DRF): 1.6

## Nc1cccc2cc3ccccc3cc12 [Aminoanthracene, reference compound]
[2]; [13]
  Colonies/plate (mean ± SD) Strain TA100 +S9: 570 ± 90 Colonies/plate
[3]; [13]
  Colonies/plate (mean ± SD) Strain TA98 +S9: 177 Colonies/plate
  Colonies/plate (mean ± SD) Strain TA98 −S9: >1800 Colonies/plate

## NCCCNCCS [WR-1065, 2-[(aminopropyl)amino]ethanethiol]
CHO K1 cells
  type of cell cycle block: G2/M cell cycle block

## CNCC(CS)CNC [PrC-210]
[4]
  IC70 dose, inhibition of cell growth: 4.1 mM
[2]; 30 μM
  Colonies/plate (mean ± SD) Strain TA100 +S9: 119 Colonies/plate
  Colonies/plate (mean ± SD) Strain TA100 −S9: 121 ± 8 Colonies/plate
[2]; 100 μM
  Colonies/plate (mean ± SD) Strain TA100 +S9: 127 ± 8 Colonies/plate
  Colonies/plate (mean ± SD) Strain TA100 −S9: 116 ± 22 Colonies/plate
[2]; 400 μM
  Colonies/plate (mean ± SD) Strain TA100 +S9: 144 ± 14 Colonies/plate
  Colonies/plate (mean ± SD) Strain TA100 −S9: 128 Colonies/plate
[2]; 1000 μM
  Colonies/plate (mean ± SD) Strain TA100 +S9: 148 ± 5 Colonies/plate
  Colonies/plate (mean ± SD) Strain TA100 −S9: 101 ± 19 Colonies/plate
[2]; 4100 μM
  Colonies/plate (mean ± SD) Strain TA100 +S9: 115 ± 33 Colonies/plate
  Colonies/plate (mean ± SD) Strain TA100 −S9: 134 ± 20 Colonies/plate
[2]; 7000 μM
  Colonies/plate (mean ± SD) Strain TA100 +S9: 149 ± 18 Colonies/plate
  Colonies/plate (mean ± SD) Strain TA100 −S9: 128 ± 11 Colonies/plate
[2]; concentrations up to 7 mM
  mutagenicity: point mutations (strain TA100): nor point mutations
[5]; 300 g rats, 1.1 mg absorbed, over 48 h (lowest)
  systemic dose after topical application: 3.7 μg/g BW
[5]; Group 1, over 48 h (16.28 mg × 6.7%)
  estimated mass that crossed the skin barrier and entered systemic circulation: 1.1 mg
[5]; Group 1: 370 mM dermal, 16.28 mg applied
  Cmax (radioactivity in plasma): 257 ng-eq/g
[5]; Group 1: 370 mM dermal
  Recovery (carcass): 0.52%
  Recovery (skin) = skin (dose site) + skin wash: 41.54%
  Recovery (total): 49.4%
[5]; [14]
  Recovery (carcass): 1.84%
  Recovery (skin) = skin (dose site) + skin wash: 47.16%
  Recovery (total): 66.0%
[5]; Group 3, over 48 h
  estimated mass that crossed the skin barrier and entered systemic circulation: 6.8 mg
[5]; Group 3: 1850 mM dermal, 81.40 mg applied, with 300 mM norepinephrine
  Cmax (radioactivity in plasma): 726 ng-eq/g
[5]; [15]
  Recovery (carcass): 1.53%
  Recovery (skin) = skin (dose site) + skin wash: 60.46%
  Recovery (total): 70.0%
[5]; after dermal dose
  share of absorbed radioactivity eliminated by the urine: ≥ 90%
[5]; over 48 h following topical administration, across groups
  transfer of topically applied PrC-210 into systemic circulation: 6–15%
[5]; rat blood samples, preliminary analysis (not shown)
  14C cpm in blood remaining soluble after TCA precipitation: less than 10%
[6]; HCl salt dissolved in water
  pH on dissolution in water: ~ 3.0
[6]; pH 5.5, 1 week at room temperature in the dark
  PrC-210 disulfide in solution: < 1%
[6]; pH 8.0, 1 week at room temperature in the dark
  PrC-210 disulfide in solution: > 98%
rat
  hypotension response: nor hypotension response
[7]
  protection of supercoiled plasmid DNA against ROS-induced nicking: complete protection
[8]
  oral activity: active when taken orally
ICR mice [9]; i.p. 211 μg/g BW 30 min before increasing radiation doses, survival to day 35
  dose reduction factor (DRF): 1.6
ICR mice [9]; i.p. 211 μg/g BW (0.5× MTD best fit) 30 min before 8.63 Gy whole-body radiation
  survival: 98%
ICR mice [9]; i.p. 252 μg/g BW 30 min before 8.75 Gy (otherwise 100% lethal)
  survival: 100%
ICR mice [9]; i.p. 252 μg/g BW (0.5× MTD probit) 30 min before 8.63 Gy whole-body radiation
  survival: 100%
p21
  p21 protein level in nuclear extracts: significantly elevated
ICR mice [10]; extrapolated from the best fit curve (Fig. 8A)
  i.p. MTD (= i.p. LD10 dose): 422 μg/g BW
ICR mice [10]; i.p., probit analysis of percentage survival data
  LD10 dose: 504 μg/g BW
ICR mice [10]; single i.p. 500 μg/g BW
  toxic response: either a transient response in which the mice are sleepy but then rebound over several hours and survive, or they die within 1–2 h
ICR mice [10]; single i.p. 700 μg/g BW, severe muscle spasm then death within min
  lethality: 100%
[3]; 30 μM
  Colonies/plate (mean ± SD) Strain TA98 −S9: 43 ± 2 Colonies/plate
[3]; 100 μM
  Colonies/plate (mean ± SD) Strain TA98 +S9: 64 ± 4 Colonies/plate
  Colonies/plate (mean ± SD) Strain TA98 −S9: 51 ± 6 Colonies/plate
[3]; 400 μM
  Colonies/plate (mean ± SD) Strain TA98 +S9: 55 ± 3 Colonies/plate
  Colonies/plate (mean ± SD) Strain TA98 −S9: 58 ± 14 Colonies/plate
[3]; 1000 μM
  Colonies/plate (mean ± SD) Strain TA98 +S9: 54 ± 6 Colonies/plate
  Colonies/plate (mean ± SD) Strain TA98 −S9: 53 ± 3 Colonies/plate
[3]; 4100 μM
  Colonies/plate (mean ± SD) Strain TA98 +S9: 55 Colonies/plate
  Colonies/plate (mean ± SD) Strain TA98 −S9: 55 ± 5 Colonies/plate
[3]; 7000 μM
  Colonies/plate (mean ± SD) Strain TA98 +S9: 65 ± 9 Colonies/plate
  Colonies/plate (mean ± SD) Strain TA98 −S9: 51 ± 5 Colonies/plate
[3]; concentrations up to 7 mM
  mutagenicity: frameshift mutations (strain TA98): neither frameshift mutations
[11]; 4.1 mM PrC-210 30 h, then washout and fresh medium 48 h
  S-phase fraction of cells after washout: 40%
[11]; 4.1 mM PrC-210 for 30 h, control 53%
  S-phase fraction of cells: 8%
[11]; PrC-210-treated normal human fibroblasts
  type of cell cycle block: G1/S cell cycle block
[12]; 1 to 2 topical applications only
  protection against radiation dermatitis: much less protection
[12]; four topical applications over 2 h before irradiation (Fig. 5F)
  prevention of radiation dermatitis: 98%
[12]; i.p. 200 μg/g BW 30 min before 17.3 Gy
  prevention of radiation dermatitis, systemic administration: complete prevention
[12]; topical 370 mM, thiol plus charged alkyl-amine backbone (Fig. 6)
  radiodermatitis prevention, structure-activity study: 100%
[12]; topical 1500 mM in vehicles containing 75% water
  protection against radiation dermatitis, aqueous vehicle: still conferred protection
[12]; topical application to rat skin before irradiation vs vehicle controls
  prevention of Grade 2–3 radiation dermatitis by increasing topical doses: completely prevented
[12]; topical, at or above 370 mM, 17.3 Gy, scored 13 days after irradiation
  prevention of Grade 3 radiation dermatitis, topical: completely prevented
[12]; topical, vehicle 0:95:5 (ethanol:propylene glycol:water)
  IC100 dose for radiation dermatitis: 1500 mM
[12]; topical, vehicle 50:30:20 (ethanol:propylene glycol:water)
  IC100 dose for radiation dermatitis: 370 mM
